US7964701B2, “Alpha-fetoprotein peptides” (Albany Medical College, priority 2006, dated 2011)
“Also recorded” adds a separate entry of the source. Where a SMILES comes first, the peptide text is derived from it. [ ]: non-standard residue; d: D form. Hyp = O=C(O)[C@@H]1C[C@@H](O)CN1

What was measured:
[1] = tested on: MCF-7 human breast cancer cells; experiment: MCF-7 human tumor xenograft assay in SCID mice; type: in vivo, mouse
Method: The peptides of the invention were evaluated for their ability to inhibit tumor growth in a human tumor xenograft assay. Briefly, MCF-7 human breast cancer cells were obtained from ATCC® (Rockville, Md.) and were grown in DMEM supplemented with 5% FCS, 1% non-essential amino acids, 10 ng/ml insulin, 2 mM L-glutamine, 100 units/ml penicillin, and 100 μg/ml streptomycin. MCF-7 cells from culture were solidified into a fibrin clot. The tumor-containing clots were cut into pieces about 1.5 mm in diameter and implanted under the kidney capsule of severe combined immunodeficient (ICR-SCID) mice (Taconic Farms, Germantown, N.Y.) as described in Bennett et al. (Clin. Cancer Res. 1998; 4:2877-84).
Estrogen supplementation of mice was required for the growth of MCF-7 tumors. Supplementation was accomplished by s.c. implantation of a Silastic tubing capsule containing solid E2 (2 mm in length) inserted on the day of tumor implantation. Tumor size was evaluated during survival laparotomy using a dissecting microscope at the time of tumor implantation and at days 15 and 30 after tumor implantation.
The T47D human breast cancer cell line is responsive in culture, but it was a less reliable tool when grown as a xenograft tumor in immune deficient mice, having a take-rate of <60% in these mice. However, the MCF-7 human breast cancer cell line has a tumor take-rate of 100% in immune deficient mice and is completely dependent on E2 for growth in these mice (2). Consequently, MCF-7 xenografts were used as a model for ER+human breast cancer to evaluate, in vivo, the effectiveness of TOVNO (SEQ ID NO.: 7) and TOVNOGNEK (SEQ ID NO.: 34) as anticancer agents.

[2] = tested on: T47D human breast cancer cells
Method: T47D cells were obtained from ATCC® (Rockville, Md.) and grown in culture according recommended protocols. Cells were treated with 1 nM estrogen or 100 nM TOVNO (SEQ ID NO.: 7)/1 nM estrogen. Control cells received 10% estrogen-free media. Cells were treated for seven days.
A number of AFPep analogs were assessed for in vitro anticancer activity.

[3] = tested on: E2-stimulated growth of mouse uterus; experiment: Immature mouse uterine growth assay; type: in vivo; settings: for antiestrogenic activity (inhibition of E2-stimulated uterine growth), in words: Table 3 discussion
Description: The anti-breast cancer activity of the linear and cyclic 8-mer and 9-mer AFP-derived peptides is well-documented using the immature mouse uterine growth assay and the human breast cancer xenograft assay; there is a strong correlation between the results of these two assays. To evaluate peptide-induced inhibition by the peptide of the present invention of estrogen-stimulated proliferation of normal tissue, the immature mouse uterine growth assay was utilized. Briefly, 13-15 day-old Swiss/Webster female mice, 6-8 g in body weight, were distributed into treatment groups of 5 mice per group so that each group contained animals of the same range of body weight. The peptide of the invention was injected i.p., s.c., or p.o. into the mice. One hour later, estradiol (E2) or vehicle control for E2 was injected i.p. Twenty-two hours after the second injection, uteri were harvested, trimmed free of mesenteries, and immediately weighed. The uterine weights were normalized to mouse body weights to compensate for differences in body weight among litters of the same age. Experiments employed a minimum of five mice per group and the mean normalized uterine weight±SE for each group was calculated. Percent growth inhibition in a test group was calculated from normalized uterine wet weights as described below.
Differences between groups were evaluated, employing the nonparametric Wicoxon ranks sum test. In all cases, growth inhibitions that were greater than 25% were significant at P≦0.05.
In other experiments, peptide analogs comprising the sequences TOVN SEQ ID NO.: 3) and TPVN (SEQ ID NO.: 2) were assessed for their ability to inhibit E2-stimulated growth of mouse uterus after intraperitoneal and oral administration.
The ability to inhibit E2-stimulated growth of normal mouse uterus was used as a screening assay for biological activity of AFPep analogs. In general, inhibitory activity≧20% is considered to be biologically significant. Each analog's inhibitory effect on E2-stimulated growth was compared to AFPep (a positive control) and to PGVGQ (SEQ ID NO.: 44)(a negative control). PGVGQ (SEQ ID NO.: 44) (amino acids 478-482 of AFP) is a portion of the primary structure of AFP near to the anti-cancer active site of AFP and is comprised of amino acids (P, V, and G) that are important components of AFPep. A scrambled analog of AFPep was not used because some scrambled peptides retain low biological activity (data not shown). In Table 3, bold letters denote the sequences containing a putative Type I beta-turn, which was postulated to be necessary for antiestrogenic activity.

[4] = tested on: E2-stimulated growth of mouse uterus; settings: Mesfin et al. / earlier studies; cited from earlier work

Row | Molecule | growth of ER+ human MCF-7 breast cancer tumors ([1]; once a day 10 μg per mouse i.p., FIG. 7b) | growth of ER+ human MCF-7 breast cancer tumors ([1]; once a day 100 μg by oral gavage, FIG. 7a) | concentration up to which E2-stimulated T47D growth was inhibited in a concentration dependent manner / activity maintained ([2]; FIG. 6) | dose response profile, inhibition of E2-stimulated T47D cell growth ([2]; FIG. 6) | inhibition of E2-stimulated T47D cell growth, in words ([2]; Table 3 discussion, 1 μM) | dose-response profile, inhibition of E2-stimulated uterine growth ([3]; FIG. 5) | antiestrogenic activity (inhibition of E2-stimulated uterine growth), in words ([3]; 1 μg/mouse intraperitoneally) | antiestrogenic activity reported in earlier studies [4] | Inhibition ± S.E, % Immature mouse uterine growth Intraperitoneal ([3]; 1 μg/mouse intraperitoneally)
1 | CC(C)[C@H](NC(=O)[C@@H]1C[C@@H](O)CN1C(=O)[C@@H](N)[C@@H](C)O)C(=O)N[C@@H](CC(N)=O)C(=O)N1C[C@H](O)C[C@H]1C(=O)NCC(=O)N[C@@H](CC(N)=O)C(=O)N[C@@H](CCC(=O)O)C(=O)N[C@@H](CCCCN)C(N)=O [TOVNOGNEK] (H-T[Hyp]VN[Hyp]GNEK-NH2; N-terminus and C-terminus assumed) | significantly inhibited | significantly inhibited | ≤ 10^−4 M | maintained its activity with increasing concentrations | comparable to AFPep | maintained its inhibitory effect at high doses | significantly inhibited E2-stimulated uterine growth |  | 
2 | MTPVNPG [7-mer peptide earlier reported by Mesfin et al, reference compound] |  |  |  |  |  |  | significantly less activity | substantially reduced antiestrogenic properties; also recorded: little antiestrogenic activity | 18 ± 1%
